What all share (format): physicochemical
A short description of data set [1]: Color of crystalline ALA hydrochloride in sealed vials after gamma irradiation. The following applies: crystals in sealed 60 ml glass vials after gamma radiation at the target dose (0, 15 or 30 KGys). How it is done:
ALA hydrochloride salt was obtained from Sochinaz, S.A., Vionnez, Switzerland. 1.65 grams of ALA hydrochloride salt was placed into 60 ml glass vials. 360 vials of crystalline non-irradiated ALA were prepared. of these, 225 vials were sealed under ambient conditions,and were irradiated with gamma radiation as shown in Table 1. Crystalline ALA was first micronized by pulverizing into fine particles a few μm in diameter by a jet mill by Micro-Macinazione, S.A. to determine if further reducing the crystalline size would have any effect on the color of the irradiated ALA. After micronization, 1.65 grams of ALA hydrochloride salt was placed into 60 ml glass vials. A total of 270 vials of crystalline non-irradiated ALA were prepared.

The nature of data set [2]: Degradation of crystalline ALA under gamma radiation. As to conditions: gamma radiation dose of 25 kilograys or greater. From the text: This is significant, in that the United States Food and Drug Administration's (“FDA”) level of gamma irradiation for “overkill” is 25 kilograys. This is a level at which the FDA presumes, without evidence, that virtually all microorganisms have been killed.

Data set [3] is described as follows: Storage stability of gamma irradiated ALA in the sealed bottle. The following applies: despite the yellow color of the irradiated crystals. From the text:
The present invention is based on the finding that sterile ALA can be made and prepared well in advance of its final use, despite the extreme degradation generally found with ALA as noted above.

Data set [4] can be described thus: Comparison of irradiated and non-irradiated ALA (spectroscopic, chromatographic, solution pH, solubility profile, calorimetry; FIGS. 2-14). As to conditions: solution pH or solubility profile, except for the color. From the text:
This is explained more fully below with respect to FIGS. 2 to 14.
Although not intending to be bound by any theory, it appears that the color imparted by irradiation is due to F-centers.
The calorimetric measurements of FIGS. 2 and 3 indicate that any major structural differences are present in quantities of less than 1% of the total ALA amount, or that the type of any structural modification is such that the sensitivity of the calorimetric assay to the change is below the capacity of the instrumentation.
Spectral reflectance as shown in FIGS. 4 and 8-10 is very sensitive to spectral differences at or near the surface, while photoacoustic spectroscopy (“PAS”) as shown in FIGS. 5-7 is sensitive to changes both at the surface and the interior of the crystal.
Subsequent analysis of the type described above with respect to FIGS. 2-14, confirmed that there was no discernible difference in structure or pharmacological activity between the irradiated examples and the non-irradiated control comparative examples.

Each structure is given as a SMILES string.

As for `NCC(=O)CCC(=O)O` [Example 1, 5-aminolevulinic acid], in data set [1], the color entry was “yellow”.

Regarding `NCC(=O)CCC(=O)O` [Comp. Ex. 4, 5-aminolevulinic acid], the color entry in data set [1] is “off white”. `NCC(=O)CCC(=O)O` [Comp. Ex. 2, 5-aminolevulinic acid]: in data set [1], the color result is listed as “off white”. On to `NCC(=O)CCC(=O)O` [Example 4, 5-aminolevulinic acid], for which, in data set [1], the color result is “yellow”. As for `NCC(=O)CCC(=O)O` [Example 8, 5-aminolevulinic acid], the color result in data set [1] is given as “yellow”. With `NCC(=O)CCC(=O)O` [crystalline ALA, 5-aminolevulinic acid], the “degradation of the ALA at high gamma dose” value in data set [2] is “without detectable degradation”. `NCC(=O)CCC(=O)O` [Example 6, 5-aminolevulinic acid]: the color result in data set [1] is “yellow”.

As for `NCC(=O)CCC(=O)O` [Example 7, 5-aminolevulinic acid], the color result in data set [1] is given as “yellow”. For `NCC(=O)CCC(=O)O` [Comp. Ex. 1, 5-aminolevulinic acid], the color entry in data set [1] is reported as “off white”. On the same count and under the same terms, with `NCC(=O)CCC(=O)O` [Example 10, 5-aminolevulinic acid] the entry was “yellow”; with `NCC(=O)CCC(=O)O` [Example 5, 5-aminolevulinic acid], “yellow”.

Consider `NCC(=O)CCC(=O)O` [Example 3, 5-aminolevulinic acid], for which the color result in data set [1] is given as “yellow”. Same read-out and setting: the entry for `NCC(=O)CCC(=O)O` [Comp. Ex. 3, 5-aminolevulinic acid] is “off white”. The same measure, in the same setting: the entry for `NCC(=O)CCC(=O)O` [Example 2, 5-aminolevulinic acid] is “yellow”; for `NCC(=O)CCC(=O)O` [Example 9, 5-aminolevulinic acid] it is “yellow”. For the molecule `NCC(=O)CCC(=O)O` [irradiated crystalline ALA, 5-aminolevulinic acid], the degradation after irradiation result in data set [3] is on record as “had not been degraded”. Also, in data set [4], the “chemical properties versus non-irradiated ALA” value is “has not been distinguished in any chemical property from non-irradiated ALA”.

For the origin of these results see patent publication US6335465B1, “Sterilized 5-aminolevulinic acid” (Dusa Pharmaceuticals, Inc., priority 1997, dated 2002).
